Results: ChEMBL document CHEMBL3885881, “DrugMatrix”

Species: Rattus norvegicus
Test: DrugMatrix - Regimen: Daily Repeat
Assay type: toxicity, organism-based, Sprague-Dawley
Parameters: regimen Daily Repeat, gender Male, age 6-8 weeks
Conditions: in vivo, iv, vehicle 100 % SALINE; for EOSINOPHIL / ERYTHROCYTE COUNT / HEMATOCRIT / HEMOGLOBIN / LEUKOCYTE COUNT / LYMPHOCYTE / MEAN CORPUSCULAR HEMOGLOBIN / MEAN CORPUSCULAR HEMOGLOBIN CONCENTRATION / MEAN CORPUSCULAR VOLUME / MONOCYTE / NEUTROPHIL / NUCLEATED RED BLOOD CELLS / PLATELET COUNT / ABSOLUTE BASOPHIL / ABSOLUTE EOSINOPHIL / ABSOLUTE LYMPHOCYTE / ABSOLUTE MONOCYTE / ABSOLUTE SEGMENTED NEUTROPHIL / BASOPHIL: tissue Blood; for ALANINE AMINOTRANSFERASE / ALBUMIN / ALKALINE PHOSPHATASE / ASPARTATE AMINOTRANSFERASE / BLOOD UREA NITROGEN / CARBON DIOXIDE / CHLORIDE / CHOLESTEROL / CREATINE PHOSPHOKINASE / CREATININE / GLUCOSE / LACTATE DEHYDROGENASE / LIPASE / PHOSPHORUS / POTASSIUM / SODIUM / TOTAL BILIRUBIN / TOTAL PROTEIN / URIC ACID: tissue Plasma
[1] = 0 mg/kg, 72 h, dose level Control, time 3 day
[2] = 0 mg/kg, 120 h, dose level Control, time 5 day
[3] = 20 mg/kg, 72 h, dose level Low, time 3 day
[4] = 20 mg/kg, 120 h, dose level Low, time 5 day

NCC[C@H](O)C(=O)N[C@@H]1C[C@H](N)[C@@H](O[C@H]2O[C@H](CN)[C@@H](O)[C@H](O)[C@H]2O)[C@H](O)[C@H]1O[C@H]1O[C@H](CO)[C@@H](O)[C@H](N)[C@H]1O [AMIKACIN]
EOSINOPHIL [1]: 0%
ERYTHROCYTE COUNT [1]: 5.38 x10E6/uL
HEMATOCRIT [1]: 33.67%
HEMOGLOBIN [1]: 12.88 G/DL
LEUKOCYTE COUNT [1]: 8.37 x10E3/uL
LYMPHOCYTE [1]: 91.17%
MEAN CORPUSCULAR HEMOGLOBIN [1]: 23.95 pg
MEAN CORPUSCULAR HEMOGLOBIN CONCENTRATION [1]: 38.23 G/DL
MEAN CORPUSCULAR VOLUME [1]: 62.6 fL
MONOCYTE [1]: 0.83%
NEUTROPHIL [1]: 8%
NUCLEATED RED BLOOD CELLS [1]: 0.17 /100WBC
PLATELET COUNT [1]: 865 x10E3/uL
ALANINE AMINOTRANSFERASE [1]: 51.67 u/L
ALBUMIN [1]: 3.97 G/DL
ALKALINE PHOSPHATASE [1]: 351.17 u/L
ASPARTATE AMINOTRANSFERASE [1]: 82.33 u/L
BLOOD UREA NITROGEN [1]: 15.17 mg/dL
CARBON DIOXIDE [1]: 34.5 mmol/L
CHLORIDE [1]: 100 MEQ/L
CHOLESTEROL [1]: 80.33 mg/dL
CREATINE PHOSPHOKINASE [1]: 316.5 u/L
CREATININE [1]: 0.17 mg/dL
GLUCOSE [1]: 149.17 mg/dL
LACTATE DEHYDROGENASE [1]: 105.67 u/L
LIPASE [1]: 9.5 u/L
PHOSPHORUS [1]: 10.87 mg/dL
POTASSIUM [1]: 5.47 MEQ/L
SODIUM [1]: 144.2 MEQ/L
TOTAL BILIRUBIN [1]: 0.2 mg/dL
TOTAL PROTEIN [1]: 5.83 G/DL
URIC ACID [1]: 0.83 mg/dL
ABSOLUTE BASOPHIL [2]: 0 CELLS/uL
ABSOLUTE EOSINOPHIL [2]: 0 CELLS/uL
ABSOLUTE LYMPHOCYTE [2]: 6333.5 CELLS/uL
ABSOLUTE MONOCYTE [2]: 38.83 CELLS/uL
ABSOLUTE SEGMENTED NEUTROPHIL [2]: 661 CELLS/uL
BASOPHIL [2]: 0%
EOSINOPHIL [2]: 0%
ERYTHROCYTE COUNT [2]: 5.44 x10E6/uL
HEMATOCRIT [2]: 34.17%
HEMOGLOBIN [2]: 13.22 G/DL
LEUKOCYTE COUNT [2]: 7.03 x10E3/uL
LYMPHOCYTE [2]: 90.17%
MEAN CORPUSCULAR HEMOGLOBIN [2]: 24.38 pg
MEAN CORPUSCULAR HEMOGLOBIN CONCENTRATION [2]: 38.7 G/DL
MEAN CORPUSCULAR VOLUME [2]: 62.95 fL
MONOCYTE [2]: 0.5%
NEUTROPHIL [2]: 9.33%
NUCLEATED RED BLOOD CELLS [2]: 0 /100WBC
PLATELET COUNT [2]: 924.33 x10E3/uL
ALANINE AMINOTRANSFERASE [2]: 52.5 u/L
ALBUMIN [2]: 3.97 G/DL
ALKALINE PHOSPHATASE [2]: 364.83 u/L
ASPARTATE AMINOTRANSFERASE [2]: 82.5 u/L
BLOOD UREA NITROGEN [2]: 17 mg/dL
CARBON DIOXIDE [2]: 32.33 mmol/L
CHLORIDE [2]: 99.6 MEQ/L
CHOLESTEROL [2]: 75.83 mg/dL
CREATINE PHOSPHOKINASE [2]: 419 u/L
CREATININE [2]: 0.21 mg/dL
GLUCOSE [2]: 155 mg/dL
LACTATE DEHYDROGENASE [2]: 111.5 u/L
LIPASE [2]: 11.33 u/L
PHOSPHORUS [2]: 10.32 mg/dL
POTASSIUM [2]: 5.37 MEQ/L
SODIUM [2]: 144.64 MEQ/L
TOTAL BILIRUBIN [2]: 0.18 mg/dL
TOTAL PROTEIN [2]: 5.98 G/DL
URIC ACID [2]: 0.62 mg/dL
ABSOLUTE BASOPHIL [3]: 0 CELLS/uL
ABSOLUTE EOSINOPHIL [3]: 0 CELLS/uL
ABSOLUTE LYMPHOCYTE [3]: 8480.67 CELLS/uL
ABSOLUTE MONOCYTE [3]: 225.67 CELLS/uL
ABSOLUTE SEGMENTED NEUTROPHIL [3]: 993.67 CELLS/uL
BASOPHIL [3]: 0%
EOSINOPHIL [3]: 0%
ERYTHROCYTE COUNT [3]: 5.64 x10E6/uL
HEMATOCRIT [3]: 34.43%
HEMOGLOBIN [3]: 13 G/DL
LEUKOCYTE COUNT [3]: 9.7 x10E3/uL
LYMPHOCYTE [3]: 88%
MEAN CORPUSCULAR HEMOGLOBIN [3]: 23.03 pg
MEAN CORPUSCULAR HEMOGLOBIN CONCENTRATION [3]: 37.77 G/DL
MEAN CORPUSCULAR VOLUME [3]: 61 fL
MONOCYTE [3]: 2.33%
NEUTROPHIL [3]: 9.67%
NUCLEATED RED BLOOD CELLS [3]: 0.33 /100WBC
PLATELET COUNT [3]: 903.33 x10E3/uL
ALANINE AMINOTRANSFERASE [3]: 53.67 u/L
ALBUMIN [3]: 4.13 G/DL
ALKALINE PHOSPHATASE [3]: 308.67 u/L
ASPARTATE AMINOTRANSFERASE [3]: 82.33 u/L
BLOOD UREA NITROGEN [3]: 14 mg/dL
CARBON DIOXIDE [3]: 35.67 mmol/L
CHLORIDE [3]: 99 MEQ/L
CHOLESTEROL [3]: 77.33 mg/dL
CREATINE PHOSPHOKINASE [3]: 320 u/L
CREATININE [3]: 0.17 mg/dL
GLUCOSE [3]: 145.67 mg/dL
LACTATE DEHYDROGENASE [3]: 98 u/L
LIPASE [3]: 9.33 u/L
PHOSPHORUS [3]: 11.1 mg/dL
POTASSIUM [3]: 6.07 MEQ/L
SODIUM [3]: 144.47 MEQ/L
TOTAL BILIRUBIN [3]: 0.2 mg/dL
TOTAL PROTEIN [3]: 6.03 G/DL
URIC ACID [3]: 0.9 mg/dL
ABSOLUTE BASOPHIL [4]: 0 CELLS/uL
ABSOLUTE EOSINOPHIL [4]: 0 CELLS/uL
ABSOLUTE LYMPHOCYTE [4]: 3175.67 CELLS/uL
